Assay results taken from patent US6596772B1, “Phosphate mimics and methods of treatment using phosphatase inhibitors” (Sugen, Inc., priority 1999, dated 2003).

Experiments:
Format in all cases: biochemical
[1] = target: T1, PTP PEST (Homo sapiens, UniProt Q05209); assay: PTP IC50 assay, pNPP or FDP as substrate; conditions: 25° C.
T1 construct: made in house; host or cells: E. coli BL-21 (pGEX 6P-1)
T1 sequence (Q05209 1-343 limits assumed): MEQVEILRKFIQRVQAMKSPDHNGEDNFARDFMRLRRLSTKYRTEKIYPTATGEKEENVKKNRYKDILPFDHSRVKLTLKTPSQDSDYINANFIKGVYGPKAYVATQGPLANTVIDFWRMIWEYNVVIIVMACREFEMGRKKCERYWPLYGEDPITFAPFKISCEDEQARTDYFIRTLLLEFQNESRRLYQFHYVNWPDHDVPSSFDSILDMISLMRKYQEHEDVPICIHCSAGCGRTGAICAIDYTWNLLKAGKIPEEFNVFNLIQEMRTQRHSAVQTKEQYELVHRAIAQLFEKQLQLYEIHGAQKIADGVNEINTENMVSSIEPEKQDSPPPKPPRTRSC
Protocol: (§1) The following in vitro assay procedure is preferred to determine the level of activity and effect of the different compounds of the present invention on one or more of the PTPs. Similar assays can be designed along the same lines for any PTP using techniques well known in the art.
(§2) The catalytic assays described herein are performed in a 96-well format. The general procedure begins with the determination of PTP optimal pH using a three-component buffer system that minimizes ionic strength variations across a wide range of buffer pH. Next, the Michaelis-Menten constant, or Km, is determined for each specific substrate-PTP system. This Km value is subsequently used as the substrate reaction concentration for compound screening. Finally, the test PTP is exposed to varying concentrations of compound for fifteen minutes and allowed to react with substrate for ten minutes. The results are plotted as percent inhibition versus compound concentration and the IC50 interpolated from the plot.
(§3) All assays were performed using pNPP or FDP as substrate. The optimum pH was determined for each PTP used.
(§4) PTPase activity was assayed at 25° C. in a 100-μl reaction mixture containing an appropriate concentration of pNPP or FDP as substrate. The reaction was initiated by addition of the PTP and quenched after 10 min by addition of 50 μl of IN NaOH. The non-enzymatic hydrolysis of the substrate was corrected by measuring the control without the addition of the enzyme. The amount of p-nitrophenol produced was determined from the absorbance at 410 nm. To determine the kinetic parameter, Km, the initial velocities were measured at various substrate concentrations and the data were fitted to the Michaelis equation where velocity=(Vmax*[S])/(Km+[S]), and [S]=substrate reaction concentration.
(§5) The effect of the compounds on PTP was evaluated at 25° C. using pNPP or FDP as substrate. PTP was pre-incubated for fifteen minutes with various concentrations of compound. Substrate was then added at a fixed concentration (usually equal to the Km previously calculated). After 10 minutes, NaOH was added to stop the reaction. The hydrolysis of pNPP was followed at 410 nm on the Biotek Powerwave 200 microplate scanning spectrophotometer. The percent inhibition was calculated as follows: Percent Inhibition=[(control signal−compound signal)/control signal] ×100%. The IC50 was then determined by interpolation of a percent inhibition versus compound concentration plot.
(§6) Plasmids designed for bacterial GST-PTP fusion protein expression were derived by insertion of PCR-generated human PTP fragments into pGEX vectors (Pharmacia Biotech). Several of these constructs were then used to subclone phosphatases into pFastBac-1for expression in Sf-9 insect cells. Oligonucleotides used for the initial amplification of PTP genes are shown below. The cDNAs were prepared using the Gilbo BRL superscript preamplification system on RNAs purchased from Clontech.
The PTP PEST CDNA was amplified from an HeLa cDNA library (Clonetech RNA) using the following oligonucleotides: 5′oligo: 5′-[…]-3′ (SEQ ID NO: 14) 3′oligo: 5′-[…]-3′ (SEQ ID NO: 15) It was subsequently ligated into the Eco RI/Xho I sites of pGEX 6P-1.

[2] = target: T2, PTP MU (Homo sapiens, UniProt P28827); assay: PTP IC50 assay, pNPP or FDP as substrate; conditions: pNPP or FDP as substrate, 25° C.; read-out: PTP IC50 Mu
T2 construct: made in house; host or cells: E. coli BL-21 (pGEX 6P-1)
T2 sequence (P28827 831-1186 limits assumed): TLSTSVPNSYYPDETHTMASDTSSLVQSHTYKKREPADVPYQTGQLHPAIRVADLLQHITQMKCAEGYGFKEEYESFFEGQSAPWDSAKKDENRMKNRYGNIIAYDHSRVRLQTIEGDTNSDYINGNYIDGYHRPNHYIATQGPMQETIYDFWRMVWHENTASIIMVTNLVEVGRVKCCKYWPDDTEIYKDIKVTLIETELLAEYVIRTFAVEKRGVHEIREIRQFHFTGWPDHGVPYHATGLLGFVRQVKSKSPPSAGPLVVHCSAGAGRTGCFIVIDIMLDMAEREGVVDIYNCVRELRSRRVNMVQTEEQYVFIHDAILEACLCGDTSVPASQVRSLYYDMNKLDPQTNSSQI
Protocol: as §1, §2, §3, §4, §5, §6
The PTP Mu cDNA was amplified from a human lung cDNA library (Clontech) using the following oligonucleotides; 5′oligo: 5′-[…]-3′ (SEQ ID NO: 18) 3′oligo: 5′-[…]-3′ (SEQ ID NO: 19) It was subsequently ligated into the Eco RI/Xho I sites of pGEX 6P-1.

[3] = target: T3, PTP ZETA (Homo sapiens, UniProt P23471); assay: PTP IC50 assay, pNPP or FDP as substrate; conditions: 25° C.
T3 construct: made in house; host or cells: E. coli BL-21 (pGEX 6P-1)
T3 sequence (P23471 1667-2028 limits assumed): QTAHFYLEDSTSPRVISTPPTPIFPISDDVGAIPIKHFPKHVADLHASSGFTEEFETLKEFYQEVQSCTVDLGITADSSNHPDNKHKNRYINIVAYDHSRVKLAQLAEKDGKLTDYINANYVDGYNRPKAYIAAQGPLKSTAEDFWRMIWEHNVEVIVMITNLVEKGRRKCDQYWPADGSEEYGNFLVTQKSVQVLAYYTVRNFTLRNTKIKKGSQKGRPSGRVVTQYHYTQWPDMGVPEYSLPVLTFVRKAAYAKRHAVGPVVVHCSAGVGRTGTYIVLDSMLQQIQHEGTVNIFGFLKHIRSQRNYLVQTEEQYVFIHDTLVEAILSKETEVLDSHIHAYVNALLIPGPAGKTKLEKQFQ
Protocol: as §1, §2, §3, §4, §5, §6
The PTP Zeta cDNA was amplified from human placenta single strand cDNA (Clontech RNA) using the following oligonucleotides 5′oligo: 5′-[…]-3′ (SEQ ID NO: 10) 3′oligo: 5′-[…]-3′ (SEQ ID NO: 11) and subsequently ligated into pGEX 6P-1 Eco RI/Xho I sites.

[4] = target: T4, PTP DEP1 (Homo sapiens, UniProt Q12913); assay: PTP IC50 assay, pNPP or FDP as substrate; conditions: 25° C.
T4 construct: GST-fusion proteins encompassing the entire cytoplasmic domain was done by PCR; made in house; host or cells: E. coli BL-21 (pGEX 2T)
T4 sequence (Q12913 997-1337 limits assumed): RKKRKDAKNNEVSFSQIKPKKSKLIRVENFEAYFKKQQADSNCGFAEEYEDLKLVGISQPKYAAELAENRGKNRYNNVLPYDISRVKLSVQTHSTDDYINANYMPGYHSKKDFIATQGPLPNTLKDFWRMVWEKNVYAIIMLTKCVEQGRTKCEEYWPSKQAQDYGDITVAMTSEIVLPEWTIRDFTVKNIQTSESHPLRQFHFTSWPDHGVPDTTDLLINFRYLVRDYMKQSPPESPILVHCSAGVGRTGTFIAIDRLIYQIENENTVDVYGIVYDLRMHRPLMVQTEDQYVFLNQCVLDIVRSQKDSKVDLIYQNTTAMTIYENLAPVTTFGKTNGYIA
Protocol: as §1, §2, §3, §4, §5, §6
The full length DEP1 cDNA was isolated from a human mammary cDNA library (Clontech). The construction of GST-fusion proteins encompassing the entire cytoplasmic domain was done by PCR using the following oligos; 5′oligo: 5′-[…]-3′ (SEQ ID NO: 20) 3′oligo: 5′-[…]-3′ (SEQ ID NO: 21) It was subsequently ligated into the Eco RI/Bam H1 sites of pGEX 2T.

[5] = target: T5, PTP ALPHA (Homo sapiens, UniProt P18433); assay: PTP IC50 assay, pNPP or FDP as substrate; conditions: 25° C.
T5 construct: RTPα intracellular domain construct was obtained; made in house; host or cells: E. coli BL-21 (pGEX 3X)
Protocol: as §1, §2, §3, §4, §5, §6
RTPα intracellular domain construct was obtained, Schlessinger et al., U.S. Pat. No. 5,888,794, the contents of which are hereby incorporated in their entirety into the present application. The RTPα fragment was cloned into pGEX 3× using the following procedure. The portion from EclX I/Xma III/Eag I (N-terminus blunted by Klenow) to Eco RV was cloned into the Sma I site. The EclX I site is approximately 15 residues downstream of the transmembrane domain.

[6] = target: T6, PTP EPSILON (Homo sapiens, UniProt P23469); assay: PTP IC50 assay, fluorescent substrate DiFMUP; conditions: DiFMUP as substrate, 25° C.; read-out: PTP IC50 Epilson
T6 construct: made in house; host or cells: Sf-9 insect cells (pFastBac-G2T); a pGEX 6P-1 construct also existed
T6 sequence (P23469 80-393 limits assumed): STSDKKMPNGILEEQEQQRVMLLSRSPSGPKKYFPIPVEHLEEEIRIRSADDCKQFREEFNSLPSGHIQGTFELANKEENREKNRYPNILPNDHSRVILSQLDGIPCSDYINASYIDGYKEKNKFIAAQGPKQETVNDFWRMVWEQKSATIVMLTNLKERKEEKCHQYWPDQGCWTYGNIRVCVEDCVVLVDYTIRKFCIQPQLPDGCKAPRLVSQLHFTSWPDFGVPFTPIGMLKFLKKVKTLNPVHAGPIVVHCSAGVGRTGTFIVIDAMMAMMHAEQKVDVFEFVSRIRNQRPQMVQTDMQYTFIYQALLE

[7] = target: T7, PTP 1B (Homo sapiens, UniProt P18031); assay: PTP IC50 assay, fluorescent substrate DiFMUP; conditions: DiFMUP as substrate, 25° C.; read-out: PTP IC50 1B
T7 construct: made in house; host or cells: Sf-9 insect cells (pFastBac-G2T)
T7 sequence (P18031 1-435): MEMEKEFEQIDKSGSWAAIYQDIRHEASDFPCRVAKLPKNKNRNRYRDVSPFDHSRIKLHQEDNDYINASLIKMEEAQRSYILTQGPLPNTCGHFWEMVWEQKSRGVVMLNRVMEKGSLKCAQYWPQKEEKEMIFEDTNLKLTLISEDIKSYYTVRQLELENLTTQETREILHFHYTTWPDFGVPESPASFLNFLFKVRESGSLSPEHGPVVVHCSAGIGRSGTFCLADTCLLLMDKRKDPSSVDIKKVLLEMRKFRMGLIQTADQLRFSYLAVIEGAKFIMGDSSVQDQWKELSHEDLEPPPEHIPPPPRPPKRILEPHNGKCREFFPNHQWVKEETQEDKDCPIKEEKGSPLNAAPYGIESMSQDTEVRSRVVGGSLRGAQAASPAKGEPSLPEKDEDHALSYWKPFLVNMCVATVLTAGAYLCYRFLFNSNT

[8] = target: T8, PTP SHP2 (Homo sapiens, UniProt Q06124); assay: PTP IC50 assay, fluorescent substrate DiFMUP; conditions: DiFMUP as substrate, 25° C.; read-out: PTP IC50 SHP2
T8 construct: The catalytic domain was amplified using the following oligonucleotides; made in house; host or cells: Sf-9 insect cells (pFastBac-G2T)
T8 sequence (Q06124 247-517 limits assumed): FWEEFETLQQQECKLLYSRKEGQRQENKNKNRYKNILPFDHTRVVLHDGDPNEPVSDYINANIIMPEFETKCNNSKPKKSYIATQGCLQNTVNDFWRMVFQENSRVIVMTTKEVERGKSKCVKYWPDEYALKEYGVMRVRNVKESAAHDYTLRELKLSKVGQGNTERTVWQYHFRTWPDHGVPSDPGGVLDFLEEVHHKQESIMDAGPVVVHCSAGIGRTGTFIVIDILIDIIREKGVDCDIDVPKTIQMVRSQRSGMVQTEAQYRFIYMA

Row | IC50 [1] [µM] | IC50 [2] [µM] | IC50 [3] [µM] | IC50 [4] [µM] | IC50 [5] [µM] | IC50 [6] [µM] | IC50 [7] [µM] | IC50 [8] [µM] | SMILES
1 | 22 | > 100 | > 100 | 41 | > 100 |  |  |  | O=S(=O)(c1ccc(SSc2ccc(S(=O)(=O)C(F)(F)F)cc2)cc1)C(F)(F)F [Example 7, Bis (4-trifluoromethylsulfonylphenyl) disulfide]
2 |  |  |  |  |  | > 100 | > 100 | > 20 | O=C(O)Cn1c(C(=O)O)cc2cc(N(S(=O)(=O)C(F)(F)F)S(=O)(=O)C(F)(F)F)ccc21 [Example 100, 1-Carboxymethyl-5-(N,N-ditrifluoromethanesulfonyl)amino-1H-indole-2-carboxylic acid]
3 |  |  |  |  |  | 1.4 | 6.6 | 3.4 | CCOC(=O)c1cc2cc(NS(=O)(=O)C(F)(F)F)ccc2n1CC1CCCCC1 [Example 101, 1-Cyclohexylmethyl-5-trifluoromethanesulfonylamino-1H-indole-2-carboxylic acid ethyl ester]
4 |  |  |  |  |  | 12.2 | 43.1 | 4 | O=C(O)c1cc2cc(NS(=O)(=O)C(F)(F)F)ccc2n1Cc1ccccc1 [Example 102, 1-Benzyl-5-trifluoromethanesulfonylamino-1H-indole-2-carboxylic acid]
5 |  |  |  |  |  | 34.7 | > 100 | 17.9 | O=C(O)c1cc2cc(NS(=O)(=O)C(F)(F)F)ccc2n1CC1CCCCC1 [Example 103, 1-Cyclohexylmethyl-5-trifluoromethanesulfonylamino-1H-indole-2-carboxylic acid]

Row | SMILES | IC50 [1] [µM] | IC50 [2] [µM] | IC50 [3] [µM] | IC50 [4] [µM] | IC50 [5] [µM] | IC50 [6] [µM] | IC50 [7] [µM] | IC50 [8] [µM]
6 | CCOC(=O)c1cc2cc(N(S(=O)(=O)C(F)(F)F)S(=O)(=O)C(F)(F)F)ccc2n1CC(=O)OC(C)(C)C [Example 99, 1-tert-Butoxycarbonylmethyl-5-(N,N-ditrifluoromethanesulfonyl)amino-1H-indole-2-carboxylic acid ethyl ester] |  |  |  |  |  | 27.5 | 4.8 | 7
